Antibiofilm activity data for five compounds are collected here from US12048309B2, “Materials and methods for preventing and dispersing exopolysaccharide-containing biofilms involving Listeria monocytogenes” (University of Wyoming, priority 2021, dated 2024).

In the assay the test system is EPS-biofilm formation by L. monocytogenes. The assay is described as follows: Test of major ingredients of red maple (Acer rubrum) methanol extract for preventing EPS-biofilm formation. The format is cell-based, Listeria monocytogenes. Conditions: ingredients of methanol extract of dried red maple stems. The protocol: To identify active components responsible for preventing EPS-biofilm formation by L. monocytogenes, major ingredients from methanol extract of dried red maple stems, Acer rubrum, were tested. The tested compositions included catechin, epicatechin, procyanidin A2, epicatechin gallate, nortrachelogenin (also known as pinopalustrin), and nortrachelogenin 8′-O-β-D-glucopyranoside (also known as nortrachelogenin-8′-O-beta-glucoside).
Other major ingredients of the maple methanol extract, including catechin, epicatechin, procyanidin A2, and epicatechin gallate had no effect.

Turning to `Oc1cc(O)c2c(c1)O[C@@]1(c3ccc(O)c(O)c3)Oc3cc(O)c4c(c3[C@@H]2[C@H]1O)O[C@H](c1ccc(O)c(O)c1)[C@H](O)C4` [procyanidin A2], the antibiofilm activity result was “no effect”. With `Oc1cc(O)c2c(c1)O[C@H](c1ccc(O)c(O)c1)[C@H](O)C2` [epicatechin], the antibiofilm activity result is recorded as “no effect”. As to `COc1cc(CC2COC(=O)C2(O)Cc2ccc(O)c(OC)c2)ccc1O` (centres unmarked) [nortrachelogenin], the antibiofilm activity result is on record as “no significant antibiofilm activity”. As to `O=C(O[C@@H]1Cc2c(O)cc(O)cc2O[C@@H]1c1ccc(O)c(O)c1)c1cc(O)c(O)c(O)c1` [epicatechin gallate], the antibiofilm activity result is on record as “no effect”. For catechin, the antibiofilm activity result is listed as “no effect”.
